From PubChem BioAssay (NCI) come the findings set out here.

Test systems include HCT-15 colon; SK-MEL-5 melanoma; SW-620 colon; OVCAR-5 ovarian; PC-3 prostate; RXF 393 renal; U251 CNS; NCI/ADR-RES ovarian; T-47D breast; NCI-H460 lung.
Common to all, as to assay: NCI-60 cell line screen, 48 h

Values joined by “and” are separate entries in the source; they are usually repeats but may differ in a detail not shown here. Identical values can stand only once.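 Each compound was tested at five concentrations against cells in 96-well plates for 48 hours. GI50: concentration for 50% inhibition of growth. TGI: concentration producing complete growth inhibition.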 Where only a bound is given, the exact number is not on record here.

As to `COc1cc(/C=C2\CCC(CN(C)C)C2=O)ccc1OC(=O)c1ccccc1` (stereo not given), the TGI in the experiment on HCT-15 colon stood at 20.4 µM; in the experiment with SK-MEL-5 melanoma, 29.3 µM; in the experiment with SW-620 colon it was 17.8 µM; in the experiment with OVCAR-5 ovarian it was 33.8 µM; with PC-3 prostate it was 30 µM; with RXF 393 renal, 15.4 µM. Also, the TGI in the experiment with U251 CNS is 29.8 µM; in the experiment with NCI/ADR-RES ovarian, 48.7 µM; in the experiment with T-47D breast it was 7.9 µM; with NCI-H460 lung it was 37.7 µM.

For `O=C(Nc1ccc(Cl)cc1)c1cc(-c2ccc(Cl)cc2)c2sc(=O)[nH]c2n1`, the GI50 in the experiment on HCT-15 colon was 1.27 µM; with SK-MEL-5 melanoma it was 0.687 µM; in the experiment on SW-620 colon, 2.9 µM; with OVCAR-5 ovarian, 3.41 µM; in the experiment with PC-3 prostate, 1.66 µM; with RXF 393 renal, 2.77 µM. The GI50 in the experiment on U251 CNS was 1.88 µM; in the experiment with NCI/ADR-RES ovarian, 1.98 µM; in the experiment with T-47D breast, 0.584 µM; in the experiment with NCI-H460 lung, 2.19 µM. Further, the TGI in the experiment with HCT-15 colon worked out at 9.54 µM; with SK-MEL-5 melanoma, 2.99 µM; in the experiment on SW-620 colon it was 15.2 µM; with OVCAR-5 ovarian, 29.3 µM; with PC-3 prostate, 12.2 µM; in the experiment on RXF 393 renal, 7.42 µM. Moreover, the TGI in the experiment on U251 CNS worked out at 11.8 µM; in the experiment on NCI/ADR-RES ovarian, 7.61 µM; with T-47D breast it was 5.46 µM; with NCI-H460 lung, 12.6 µM.

On to `Cn1cc(-c2cnc3ccc4ccc(CS(=O)(=O)NCc5ccccn5)cc4c(=O)c3c2)cn1`, for which the GI50 in the experiment on HCT-15 colon is 5.67 µM; in the experiment on SK-MEL-5 melanoma, 11.3 µM; with SW-620 colon, 15.6 µM; with OVCAR-5 ovarian, 29.5 µM; in the experiment on PC-3 prostate, 31.3 µM; in the experiment with RXF 393 renal, 12.9 µM. Also, the GI50 in the experiment with U251 CNS was 21.6 µM; in the experiment with NCI/ADR-RES ovarian, 23.5 µM; with T-47D breast, 16.4 µM; in the experiment on NCI-H460 lung, 15.7 µM. For the same molecule, the TGI with HCT-15 colon was 37.1 µM; with SK-MEL-5 melanoma, 24 µM; with SW-620 colon, greater than 100 µM; in the experiment with OVCAR-5 ovarian, greater than 100 µM; with PC-3 prostate it was greater than 100 µM; in the experiment on RXF 393 renal, 35.1 µM. For the same molecule, the TGI was greater than 100 µM in the experiment on U251 CNS, greater than 100 µM in the experiment with NCI/ADR-RES ovarian, greater than 93 µM in the experiment with T-47D breast and 49.7 µM with NCI-H460 lung.

On to `NC1=NC(c2ccc(Cl)cc2)C2=C(N1)/C(=C/c1ccc(Cl)cc1)CCC2` (stereo not given), for which the GI50 in the experiment with HCT-15 colon is 9.13 µM; with SK-MEL-5 melanoma, 5.51 µM; in the experiment with SW-620 colon it was 3.24 µM; with OVCAR-5 ovarian, 25.2 µM; in the experiment on PC-3 prostate, 7.82 µM; in the experiment with RXF 393 renal, 2.05 µM. The GI50 in the experiment on U251 CNS was 3.38 µM; in the experiment on NCI/ADR-RES ovarian, 12.2 µM; in the experiment on T-47D breast, 11.6 µM; in the experiment on NCI-H460 lung it was 12.2 µM. In addition, the TGI worked out at 26.9 µM with HCT-15 colon; 12.9 µM in the experiment on SK-MEL-5 melanoma; 12.4 µM in the experiment on SW-620 colon; 63.3 µM in the experiment on OVCAR-5 ovarian; 56.3 µM in the experiment with PC-3 prostate; 4.45 µM in the experiment with RXF 393 renal. Also, the TGI in the experiment on U251 CNS was 12.2 µM; in the experiment with NCI/ADR-RES ovarian, greater than 100 µM; with T-47D breast it was greater than 100 µM; with NCI-H460 lung, 29.8 µM.

As for `N#CC1=C(N)NC(=O)NC12Nc1ccccc1S2` (stereo not given), the GI50 was 26.7 µM in the experiment on HCT-15 colon; 17.5 µM in the experiment with SK-MEL-5 melanoma; 28.8 µM in the experiment with SW-620 colon; 27 µM with OVCAR-5 ovarian; 28 µM in the experiment on PC-3 prostate; 16.9 µM with RXF 393 renal. Besides, the GI50 in the experiment with U251 CNS is 21.4 µM; in the experiment on NCI/ADR-RES ovarian it was 24.7 µM; in the experiment on T-47D breast, 26.7 µM; with NCI-H460 lung, 23.6 µM. Besides, the TGI in the experiment with HCT-15 colon was 87 µM; in the experiment with SK-MEL-5 melanoma, 33.2 µM; in the experiment on SW-620 colon, greater than 72.6 µM; in the experiment on OVCAR-5 ovarian it was greater than 72.3 µM; in the experiment on PC-3 prostate, greater than 57.9 µM; in the experiment on RXF 393 renal, greater than 52.7 µM. The TGI is greater than 55 µM in the experiment with U251 CNS, greater than 68.8 µM with NCI/ADR-RES ovarian, greater than 100 µM in the experiment with T-47D breast and greater than 70.9 µM in the experiment with NCI-H460 lung.

As for `C#Cc1c(C(N)=O)ncn1C1OC(COP(=O)(OCc2ccc([N+](=O)[O-])o2)N(C)CCCCCl)C(O)C1O` (stereo not given), the GI50 in the experiment on HCT-15 colon is 31.3 µM; in the experiment with SK-MEL-5 melanoma, 2.83 µM; with SW-620 colon, 41.4 µM; in the experiment on OVCAR-5 ovarian, 16.2 µM; in the experiment with PC-3 prostate, 53.5 µM; with RXF 393 renal, greater than 100 µM. The GI50 in the experiment with U251 CNS was 53.9 µM; with NCI/ADR-RES ovarian, 15.1 µM; in the experiment with T-47D breast, 12.7 µM; in the experiment on NCI-H460 lung, 34.1 µM. For the same molecule, the TGI was greater than 100 µM in the experiment with HCT-15 colon; 26.5 µM with SK-MEL-5 melanoma; greater than 100 µM with SW-620 colon; greater than 100 µM in the experiment with OVCAR-5 ovarian; greater than 100 µM in the experiment with PC-3 prostate; greater than 100 µM in the experiment on RXF 393 renal. The TGI in the experiment on U251 CNS, in the experiment on NCI/ADR-RES ovarian, in the experiment with T-47D breast and in the experiment with NCI-H460 lung was greater than 100 µM in each case.

Take `Cc1cc(Nc2ncnc3ccc(NC4=NC(C)(C)CO4)cc23)ccc1Oc1ccn2ncnc2c1`: the GI50 with HCT-15 colon was 8.92 µM and > 10 µM; with SK-MEL-5 melanoma, 9.59 µM and 9.83 µM; with SW-620 colon, 20.5 µM and > 10 µM; in the experiment with OVCAR-5 ovarian it was 17.1 µM and > 10 µM; with PC-3 prostate, 15.7 µM and > 10 µM; with RXF 393 renal it was 12.7 µM and > 10 µM. Also, the GI50 is 13.4 µM and > 10 µM in the experiment on U251 CNS; 17.1 µM and > 10 µM with NCI/ADR-RES ovarian; 1.33 µM and 1.75 µM with T-47D breast; 17.9 µM and > 10 µM with NCI-H460 lung. Moreover, the TGI with HCT-15 colon was greater than 65.9 µM; in the experiment with SK-MEL-5 melanoma, 22.3 µM and > 10 µM; in the experiment on SW-620 colon it was 41.2 µM and > 10 µM; in the experiment on OVCAR-5 ovarian, 62.9 µM and > 10 µM; with PC-3 prostate, 66.6 µM and > 10 µM; in the experiment on RXF 393 renal it was 28.9 µM and > 10 µM. The TGI in the experiment on U251 CNS was 35.7 µM and > 10 µM; in the experiment on NCI/ADR-RES ovarian it was 89.2 µM and > 10 µM; in the experiment on T-47D breast, 12.8 µM and > 10 µM; in the experiment on NCI-H460 lung, 39.6 µM and > 10 µM.

With `COc1ccc(-n2c3c(c4c(CN5CCOCC5)c(O)ccc42)CCc2ccccc2C3=O)cc1`, the GI50 in the experiment on HCT-15 colon was greater than 100 µM; in the experiment with SK-MEL-5 melanoma, 63.1 µM; with SW-620 colon, 82.2 µM; in the experiment on OVCAR-5 ovarian it was 34.8 µM; with PC-3 prostate it was 16.9 µM; with RXF 393 renal it was 14.8 µM. The GI50 in the experiment on U251 CNS was 85.7 µM; in the experiment with NCI/ADR-RES ovarian, 25 µM; with T-47D breast it was greater than 100 µM; with NCI-H460 lung it was greater than 100 µM. In addition, the TGI in the experiment with HCT-15 colon, in the experiment with SK-MEL-5 melanoma, with SW-620 colon, in the experiment on OVCAR-5 ovarian, in the experiment on PC-3 prostate and with RXF 393 renal was greater than 100 µM each time. Also, the TGI in the experiment with U251 CNS was greater than 100 µM; with NCI/ADR-RES ovarian, 88.9 µM; in the experiment with T-47D breast, greater than 100 µM; in the experiment on NCI-H460 lung it was greater than 100 µM.
